Measured values: US20250313563A1, “GLYCOGEN SYNTHASE KINASE 3 INHIBITORS AND USES THEREOF” (The Broad Institute, Inc., priority 2022, published 2025)
Read-outs that look alike come from different tables or passages of the source.

Legend:
[1] = target: GSK3α (GST-full length GSK3α) (Homo sapiens (Human), UniProt P49840); test: GSK3α TR-FRET kinase assay; type: biochemical
Procedure, shortened: (§1)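 IC50 came from the normalized 665/615 nm TR-FRET ratio plotted against log compound concentration. The Tb-labelled pSer641 antibody and streptavidin-d2 detected phosphorylation of biotinylated S645-primed glycogen synthase peptide (200 nM) by 1 nM full-length GST-kinase. ATP was 4 μM for α, 2 μM for β, or 1 mM.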

[2] = target: GSK3b (GST-full length GSK3b) (Homo sapiens (Human), UniProt P49841); test: GSK3b TR-FRET kinase assay; type: biochemical
Chain of GSK3b (GST-full length GSK3b) (P49841 whole entry): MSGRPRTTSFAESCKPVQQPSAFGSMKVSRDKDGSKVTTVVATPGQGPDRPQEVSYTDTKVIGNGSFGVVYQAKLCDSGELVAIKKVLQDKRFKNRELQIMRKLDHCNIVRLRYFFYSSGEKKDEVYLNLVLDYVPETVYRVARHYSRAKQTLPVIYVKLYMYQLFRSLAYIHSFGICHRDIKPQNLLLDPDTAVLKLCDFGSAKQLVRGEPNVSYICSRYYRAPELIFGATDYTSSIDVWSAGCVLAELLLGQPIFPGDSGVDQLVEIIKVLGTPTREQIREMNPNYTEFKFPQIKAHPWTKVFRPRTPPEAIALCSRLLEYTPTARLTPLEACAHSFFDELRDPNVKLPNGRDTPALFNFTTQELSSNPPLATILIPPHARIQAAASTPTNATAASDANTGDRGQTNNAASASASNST
Procedure, shortened: as §1

[3] = 1 nM GSK3α, 4 μM ATP, 30 minute preincubation, Table 16, read-out: GSK3-A TR-FRET BIOCHEMICAL (TR-FRET), IC50
[4] = 1 nM GSK3b, 2 μM ATP, 30 minute preincubation, Table 16, read-out: GSK3-B TR-FRET BIOCHEMICAL (TR-FRET), IC50
[5] = 1 nM GSK3α, 4 μM ATP, 30 minute preincubation, read-out: GSK3-A TR-FRET BIOCHEMICAL (TR-FRET), IC50
[6] = 1 nM GSK3b, 2 μM ATP, 30 minute preincubation, read-out: GSK3-B TR-FRET BIOCHEMICAL (TR-FRET), IC50
[7] = read-out: GSK3-A (TR-FRET 1 mM ATP), GMean, IC50, 1 mM ATP, geometric mean
[8] = read-out: GSK3-B (TR-FRET 1 mM ATP), GMean, IC50, 1 mM ATP, geometric mean
[9] = 1 nM GSK3α, 4 μM ATP, 30 minute preincubation, Table 16, read-out: GSK3-A TR-FRET BIOCHEMICAL (TR-FRET)
[10] = 1 nM GSK3b, 2 μM ATP, 30 minute preincubation, Table 16, read-out: GSK3-B TR-FRET BIOCHEMICAL (TR-FRET)

Chain of GSK3α (GST-full length GSK3α) (P49840 whole entry): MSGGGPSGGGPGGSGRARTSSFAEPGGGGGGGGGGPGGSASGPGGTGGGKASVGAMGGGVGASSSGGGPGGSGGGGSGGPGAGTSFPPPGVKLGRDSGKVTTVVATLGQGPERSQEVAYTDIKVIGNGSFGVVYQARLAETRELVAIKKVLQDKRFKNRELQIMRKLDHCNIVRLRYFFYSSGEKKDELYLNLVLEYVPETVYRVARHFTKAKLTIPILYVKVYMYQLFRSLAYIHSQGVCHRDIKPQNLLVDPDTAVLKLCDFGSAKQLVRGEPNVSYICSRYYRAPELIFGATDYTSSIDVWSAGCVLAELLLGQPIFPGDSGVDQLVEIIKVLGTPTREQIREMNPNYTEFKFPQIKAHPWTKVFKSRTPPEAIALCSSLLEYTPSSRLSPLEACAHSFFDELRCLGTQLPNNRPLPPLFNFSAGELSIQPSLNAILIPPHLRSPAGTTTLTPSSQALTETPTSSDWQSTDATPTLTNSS

Row | IC50 [1, 3] | IC50 [2, 4] | SMILES | further results
1 | 0.1 to 1 µM | 0.1 to 1 µM | CC[C@@]1(c2ccccc2)C2=C(Nc3n[nH]cc31)[C@@H](C)C[C@@H](C)C2=O [Compound 909216] | 
2 | 0.1 to 1 µM | 1 to 5 µM | CC[C@]1(c2ccccc2)C2=C(Nc3n[nH]cc31)[C@@H](C)C[C@@H](C)C2=O [Compound 909217] | 
3 | > 5 µM | > 5 µM | CC[C@]1(c2ccccc2)C2=C(Nc3n[nH]cc31)[C@H](C)C[C@H](C)C2=O [Compound 909218] | 
4 | > 5 µM | > 5 µM | CC[C@@]1(c2ccccc2)C2=C(Nc3n[nH]cc31)[C@H](C)C[C@H](C)C2=O [Compound 909219] | 
5 | ≤ 0.1 µM | 0.1 to 1 µM | CC[C@@]1(c2cc(-c3cnn(C)c3)ccc2F)C2=C(CC(C)(C)CC2=O)Nc2n[nH]cc21 [Compound 909220] | 
6 | > 5 µM | > 5 µM | CC[C@]1(c2cc(-c3cnn(C)c3)ccc2F)C2=C(CC(C)(C)CC2=O)Nc2n[nH]cc21 [Compound 909223] | 
7 |  |  | CC1(C)CC(=O)C2=C(C1)Nc1n[nH]cc1C21COC2(CN(C(=O)OC(C)(C)C)C2)C1 (centres unmarked) [Compound 911083] | IC50 [1, 5]: 0.1 to 1 µM; IC50 [2, 6]: 1 to 5 µM
8 |  |  | CCC1(c2cccc(C(F)(F)F)c2)C2=C(CC(C)NC2=O)Nc2n[nH]cc21 (centres unmarked) [Compound 911956] | IC50 [1, 5]: ≤ 0.1 µM; IC50 [2, 6]: 0.1 to 1 µM
9 | > 5 µM | > 5 µM | CC1OCCC12C1=C(CC(C)(C)CC1=O)Nc1n[nH]cc12 (centres unmarked) [Compound 911958] | 
10 | 1 to 5 µM | > 5 µM | CC[C@H]1CCN1c1cccc([C@@]2(CC)C3=C(CC(C)(C)CC3=O)Nc3n[nH]cc32)c1 [Compound 911972] | 
11 |  |  | CC1(C)CC(=O)C2=C(C1)Nc1n[nH]cc1C21COC2(CCC2)C1 (centres unmarked) [Compound 911973] | IC50 [1, 5]: 0.1 to 1 µM; IC50 [2, 6]: 0.1 to 1 µM
12 | ≤ 0.1 µM | ≤ 0.1 µM | CCC1(c2cccc(N(C)c3cccnn3)c2)C2=C(CC(C)(C)CC2=O)Nc2n[nH]cc21 (centres unmarked) [Compound 911975] | IC50 [1, 7]: 0.1 to 1 µM; IC50 [2, 8]: 1 to 5 µM
13 | 0.1 to 1 µM | > 5 µM | CCC1(c2cccc(N(C)c3cccnn3)c2)C2=C(CC(C)(C)CC2=O)Nc2n[nH]cc21 (centres unmarked) [Compound 911976] | 
14 | 1 to 5 µM | > 5 µM | CCC1(c2cccc(-c3ccnc(OC)c3)c2)C2=C(CC(C)(C)CC2=O)Nc2n[nH]cc21 (centres unmarked) [Compound 911989] | 
15 | ≤ 0.1 µM | ≤ 0.1 µM | CC[C@@]1(c2cccc(-c3c(C)nn(C)c3C)c2)C2=C(CC(C)(C)CC2=O)Nc2n[nH]cc21 [Compound 911990] | IC50 [1, 7]: ≤ 0.1 µM; IC50 [2, 8]: 0.1 to 1 µM
16 | 0.1 to 1 µM | > 5 µM | CCC1(c2cccc(-c3c(C)nn(C)c3C)c2)C2=C(CC(C)(C)CC2=O)Nc2n[nH]cc21 (centres unmarked) [Compound 911991] | 
17 | ≤ 0.1 µM | ≤ 0.1 µM | CCC1(c2cccc(-c3ccnn3C)c2)C2=C(CC(C)(C)CC2=O)Nc2n[nH]cc21 (centres unmarked) [Compound 911992] | IC50 [1, 7]: ≤ 0.1 µM; IC50 [2, 8]: 0.1 to 1 µM
18 | 1 to 5 µM | > 5 µM | CCC1(c2cccc(N3CCc4ccncc43)c2)C2=C(CC(C)(C)CC2=O)Nc2n[nH]cc21 (centres unmarked) [Compound 912004] | 
19 |  |  | CC[C@]1(c2cccc(C(F)(F)F)c2)C2=C(CCN(Cc3ccccc3)C2=O)Nc2n[nH]cc21 [Compound 912006] | IC50 [1, 5]: > 5 µM; IC50 [2, 6]: > 5 µM
20 | ≤ 0.1 µM | ≤ 0.1 µM | CCC1(c2cccc(N(CCc3ccccc3)C(C)=O)c2)C2=C(CC(C)(C)CC2=O)Nc2n[nH]cc21 (centres unmarked) [Compound 912064] | 
21 | ≤ 0.1 µM | 0.1 to 1 µM | CCC1(c2cccc(N(C)C(=O)CCc3ccccc3)c2)C2=C(CC(C)(C)CC2=O)Nc2n[nH]cc21 (centres unmarked) [Compound 912066] | 
22 | ≤ 0.1 µM | 0.1 to 1 µM | CCC1(c2cccc(N(C)C(=O)c3cnn(C)c3)c2)C2=C(CC(C)(C)CC2=O)Nc2n[nH]cc21 (centres unmarked) [Compound 912068] | 
23 | ≤ 0.1 µM | ≤ 0.1 µM | CCC1(c2cccc(N(C(C)=O)C3CCCC3)c2)C2=C(CC(C)(C)CC2=O)Nc2n[nH]cc21 (centres unmarked) [Compound 912069] | 
24 | ≤ 0.1 µM | ≤ 0.1 µM | CCC1(c2cccc(N(C)C(=O)Cc3ccccc3)c2)C2=C(CC(C)(C)CC2=O)Nc2n[nH]cc21 (centres unmarked) [Compound 912071] | 
25 |  |  | Cc1[nH]nc2c1C1(CCOCC1)C1=C(CC(C)(C)C(F)C1=O)N2 (centres unmarked) [Compound 912072] | IC50 [1, 9]: 0.1 to 1 µM; IC50 [2, 10]: 0.1 to 1 µM
26 |  |  | CC1(C)CC(=O)C2=C(C1)Nc1n[nH]cc1C21CN(CC(F)F)C1 [Compound 912073] | IC50 [1, 9]: 0.1 to 1 µM; IC50 [2, 10]: 0.1 to 1 µM
27 |  |  | CC1(C)CC(=O)C2=C(C1)Nc1n[nH]cc1C21CN(CC(F)(F)F)C1 [Compound 912074] | IC50 [1, 9]: ≤ 0.1 µM; IC50 [2, 10]: 0.1 to 1 µM
28 | 1 to 5 µM | > 5 µM | CC1(C)CC(=O)C2=C(C1)Nc1n[nH]cc1C21CNC1 [Compound 912075] | 

Row | IC50 [1, 3] | IC50 [2, 4] | SMILES | further results
29 |  |  | CC1(C)CC(=O)C2=C(C1)Nc1n[nH]cc1C21CN(C2COC2)C1 [Compound 912076] | IC50 [1, 9]: 0.1 to 1 µM; IC50 [2, 10]: 1 to 5 µM
30 | > 5 µM | > 5 µM | CC1(C)CC(=O)C2=C(C1)Nc1n[nH]cc1C21CN(c2ccncc2)C1 [Compound 912077] | 
31 | 0.1 to 1 µM | 0.1 to 1 µM | C[C@H]1CC(=O)C2=C(C1)Nc1n[nH]cc1C21CCOCC1 [Compound 912078] | 
32 | 0.1 to 1 µM | 0.1 to 1 µM | C[C@@H]1CC(=O)C2=C(C1)Nc1n[nH]cc1C21CCOCC1 [Compound 912079] | 
33 |  |  | O=C1C2=C(Nc3n[nH]cc3C23CCOCC3)[C@H]2CC[C@@H]1C2 [Compound 912080] | IC50 [1, 9]: 0.1 to 1 µM; IC50 [2, 10]: 0.1 to 1 µM
34 |  |  | O=C1C2=C(Nc3n[nH]cc3C23CCOCC3)[C@@H]2CC[C@H]1C2 [Compound 912081] | IC50 [1, 9]: 0.1 to 1 µM; IC50 [2, 10]: 1 to 5 µM
35 |  |  | CC1(C)CC(=O)C2=C(C1)Nc1n[nH]cc1C21CCC(c2ccccc2)CC1 (centres unmarked) [Compound 912084] | IC50 [1, 9]: ≤ 0.1 µM; IC50 [2, 10]: ≤ 0.1 µM
36 | 0.1 to 1 µM | > 5 µM | CCC1(c2cccc(C3CCOC(C)(C)C3)c2)C2=C(CC(C)(C)CC2=O)Nc2n[nH]cc21 (centres unmarked) [Compound 912088] | 
37 | 0.1 to 1 µM | 0.1 to 1 µM | CCC1(c2cccc(C3CCOC(C)(C)C3)c2)C2=C(CC(C)(C)CC2=O)Nc2n[nH]cc21 (centres unmarked) [Compound 912089] | 
38 | 0.1 to 1 µM | > 5 µM | CCC1(c2cccc(C3CCOC(C)(C)C3)c2)C2=C(CC(C)(C)CC2=O)Nc2n[nH]cc21 (centres unmarked) [Compound 912090] | 
39 | > 5 µM | > 5 µM | CC[C@]1(c2cccc([C@@H]3CCOC(C)(C)C3)c2)C2=C(CC(C)(C)CC2=O)Nc2n[nH]cc21 [Compound 912091] | 
40 |  |  | CC1(C)CC(=O)C2=C(C1)Nc1n[nH]cc1C21CCN(S(C)(=O)=O)C1 (centres unmarked) [Compound 912092] | IC50 [1, 9]: ≤ 0.1 µM; IC50 [2, 10]: ≤ 0.1 µM
41 | 1 to 5 µM | > 5 µM | CC1(C)CC(=O)C2=C(C1)Nc1n[nH]cc1C21COCCOC1 [Compound 912094] | 
42 |  |  | CC[C@@]1(c2cccc(C(F)(F)F)c2)C2=C(C[C@H](C)NC2=O)Nc2n[nH]cc21 [Compound 912097] | IC50 [1, 5]: 0.1 to 1 µM; IC50 [2, 6]: > 5 µM
43 |  |  | CC[C@]1(c2cccc(C(F)(F)F)c2)C2=C(C[C@H](C)NC2=O)Nc2n[nH]cc21 [Compound 912099] | IC50 [1, 5]: > 5 µM; IC50 [2, 6]: > 5 µM
44 |  |  | CCC1(c2cccc(C(F)(F)F)c2)C2=C(Nc3n[nH]cc31)C(C)(C)NC2=O (centres unmarked) [Compound 912104] | IC50 [1, 9]: ≤ 0.1 µM; IC50 [2, 10]: 0.1 to 1 µM
45 | > 5 µM | > 5 µM | CC1(C)CC(=O)C2=C(C1)Nc1n[nH]cc1C21CCCCC1=O (centres unmarked) [Compound 912105] | 
46 | 0.1 to 1 µM | 1 to 5 µM | CC1(C)CC(=O)C2=C(C1)Nc1n[nH]cc1[C@]21CCO[C@@H](C(C)(C)C)C1 [Compound 912106] | 
47 | > 5 µM | > 5 µM | CC1(C)CC(=O)C2=C(C1)Nc1n[nH]cc1[C@@]21CCO[C@H](C(C)(C)C)C1 [Compound 912107] | 
48 |  |  | CC1(C)CC(=O)C2=C(C1)Nc1n[nH]cc1[C@]21CCO[C@H](C(C)(C)C)C1 [Compound 912112] | IC50 [1, 9]: 0.1 to 1 µM; IC50 [2, 10]: 0.1 to 1 µM
49 | 1 to 5 µM | 1 to 5 µM | CC1(C)CC(=O)C2=C(C1)Nc1n[nH]cc1[C@@]21CCO[C@@H](C(C)(C)C)C1 [Compound 912113] | 
50 |  |  | CC1(C)CC(=O)C2=C(C1)Nc1n[nH]cc1C21CC2(COC2)C1 [Compound 912168] | IC50 [1, 5]: > 5 µM; IC50 [2, 6]: > 5 µM
51 | ≤ 0.1 µM | ≤ 0.1 µM | CCC1(c2cccc(S(=O)(=O)C(C)C)c2)C2=C(CC(C)(C)CC2=O)Nc2n[nH]cc21 (centres unmarked) [Compound 912169] | 
52 | 1 to 5 µM | > 5 µM | CC1(C)CC(=O)C2=C(C1)Nc1n[nH]cc1C21CS(=O)(=O)C1 [Compound 912170] | 
53 |  |  | CCC1(c2cccc(S(=O)(=O)C3CC3)c2)C2=C(CC(C)(C)CC2=O)Nc2n[nH]cc21 (centres unmarked) [Compound 912171] | IC50 [1, 7]: ≤ 0.1 µM; IC50 [2, 8]: 0.1 to 1 µM
54 |  |  | COC[C@H]1C[C@]2(C1)C1=C(CC(C)(C)CC1=O)Nc1n[nH]cc12 [Compound 912173] | IC50 [1, 9]: 0.1 to 1 µM; IC50 [2, 10]: 0.1 to 1 µM
55 |  |  | CC[C@@]1(c2cccc(C(F)(F)F)c2)C2=C(CCN(CC(F)(F)F)C2=O)Nc2n[nH]cc21 [Compound 912205] | IC50 [1, 5]: > 5 µM; IC50 [2, 6]: > 5 µM
